Assay results reported in patent US3970648A, “2-[2-(5-Nitro-2-furyl)vinyl]-4-(anilino)quinazolines” (Diamond Shamrock Corporation, priority 1974, dated 1976).

Columns and labels:
[1] = Growth promotion in chicks at low feed levels, Example VIII (Table II); format: in vivo, broiler cross chicks; details: 10 g/T in basal ration; 4 weeks
From the text: Day old broiler cross chicks were weight equalized into groups of eight chicks each and were placed in battery brooders. The 32 chick treatment groups (four replicates) were fed one of the five rations described below for a 4 week period. Weekly measurements of body weights and feed consumption were made by replicate, and these measurements used to calculate weight gain and feed efficiency.
The basal ration was the basal ration used in Example VII above. The remaining five rations were obtained by mixing the indicated quantities of bacitracin (4 g/T), chlortetracycline (10 g/T), product of Example I (10 g/T), and product of Example III of U.S. Pat. No. 3,542,784 -- Burch (10 g/T) as growth promotants with the basal ration.

[2] = Growth promotion in chicks at 25 g/T, Example X (Table IV); format: in vivo, broiler cross chicks
From the text: (§1) This example compares growth promotion activity of the product of Example I with other growth promotants at a concentration of 25 g/T in the Basal Ration described in Example VII. The other growth promotants include the product described in Example I of U.S. Pat. No. 3,542,784 -- Burch and quinoxaline-1,4-dioxide. Day old broiler cross chicks were weight equalized into groups of eight chicks each, and four replicates of eight chicks each were fed the experimental rations over a 4 week period.

[3] = Growth promotion in chicks, Example XII repeat (Table VII); format: in vivo, broiler cross chicks; details: for growth rate / feed efficiency, production parameters (in words): 25 g/T, second set of tests
From the text: as §1
The growth promotion tests described in Example X were repeated with the additional testing the products of Examples II and III.

[4] = Growth promotion in chicks, Example XII first set (Table VI); format: in vivo, broiler cross chicks; details: for Average 4 Week Performance: Feed Efficiency / Average 4 Week Performance: Gain / Improved Response Over Basal Ration: Feed Efficiency / Improved Response Over Basal Ration: Gain: 25 g/T in basal ration, 4 weeks; for growth rate / feed efficiency, production parameters (in words): 25 g/T, first set of tests
From the text: as §1, with “period. […]” for “period.”

Streptococcus agalactiae = experiment: Bactericide test, Streptococcus agalactiae (agar streak plate); format: cell-based
From the text: (§2) Test formulations were examined for bactericidal and/or bacteriostatic activity against the test organisms shown in Tables A and B. These organisms were chosen as being representative of commercially important pathogens affecting animal agriculture. The antibiotic chlortetracycline was chosen as a positive control, since it has a broad spectrum of activity against a large number of organisms, and its activity can be used for comparative purposes.
(§3) Basic test formulations of the product of Examples I, II, III, and of chlortetracycline were prepared by dissolving 16 mg (0.016 g) in 2.0 ml of stock emulsifier solution (0.25% Triton X-155 in acetone by volume) and making each solution up to 50 ml with deionized water. The concentration of the test compound in the basic formulation was 320 ppm. Lower concentrations of the test compound were obtained by diluting the basic formulation with a 4% solution of the stock emulsifier in deionized water so that each dilution in the series differed only in test compound content.
(§4) Nutrient-tryptic soy agar (NTA) consisting of 2.0% Difco Bactoagar 0.8% nutrient broth (Difco), and 0.5% tryptic soy broth (Difco) was prepared and sterilized by autoclaving. A 2 ml aliquot of each test formulation was added to 8 ml of molten NTA. This mixture was then plated in a sterile polystyrene petri dish (100 × 15 mm). After the agar was set, suspensions of each of the test organisms were simultaneously streaked onto the surface of the agar. The inoculated plates were incubated for 48 hr at 28°C. The inhibition of growth of each organism was rated by visual comparison with the organism developing on non-treated agar. Growth inhibition reported as per cent control was rated in three categories as follows: 0% control, growth equivalent to that on non-treated agar; 50% control, sparse development and separated colonies; 100% control, no visible growth or development of colonies.

Streptococcus faecalis = experiment: Bactericide test, Streptococcus faecalis (agar streak plate); format: cell-based
From the text: as §2, §3, §4
(§5) Test formulations of the product of Example IV were examined for bactericidal and/or bacteriostatic activity against the test organisms shown in Table B using the Bactericide Test described in Example V. The inhibition of organism growth with each diluted test formulation was rated visually by comparison with the organism developing on a non-treated control agar plate. Growth inhibition reported as per cent control was rated in three categories as follows: 0% control, growth equivalent to that on non-treated agar; 50% control is sparse development and separated colonies; and 100% control, development of individual colonies was not apparent.

Vibrio coli = experiment: Bactericide test, Vibrio coli (agar streak plate); format: cell-based
From the text: as §2, §3, §4

Salmonella typhimurium = experiment: Bactericide test, Salmonella typhimurium (agar streak plate); format: cell-based
From the text: as §2, §3, §4

Salmonella cholerasuis = experiment: Bactericide test, Salmonella cholerasuis (agar streak plate); format: cell-based
From the text: as §2, §3, §4, §5

Streptococcus group E = experiment: Bactericide test, Streptococcus group E (agar streak plate); format: cell-based
From the text: as §2, §3, §4

Staphylococcus aureus = experiment: Bactericide test, Staphylococcus aureus (agar streak plate); format: cell-based
From the text: as §2, §3, §4, §5

Salmonella gallinarum = experiment: Bactericide test, Salmonella gallinarum (agar streak plate); format: cell-based
From the text: as §2, §3, §4, §5

[5] = tested on: Erysipelothrix rhusiopathiae; experiment: Bactericide test, Erysipelothrix rhusiopathiae (agar streak plate); format: cell-based
From the text: as §2, §3, §4

[6] = tested on: Bordetella bronchiseptica; experiment: Bactericide test, Bordetella bronchiseptica (agar streak plate); format: cell-based
From the text: as §2, §3, §4

[7] = 100% inhibition at lower concentrations
[8] = 25 g/T in basal ration, 4 weeks

Compound: O=[N+]([O-])c1ccc(-c2nc(Nc3ccc(O)cc3)c3ccccc3n2)o1 [2-(5-nitro-2-furyl)-4-(p-hydroxyanilino)quinazoline, reference compound]
- Average 4 Week Performance: Feed Efficiency [1]: 1.726
- Average 4 Week Performance: Gain [1]: 723.1 g
- Improved Response Over Basal Ration: Feed Efficiency [1]: +1.9%
- Improved Response Over Basal Ration: Gain [1]: +0.4%
- effect on feed efficiency (in words) ([2]; 25 g/T): slight, if any, effect on feed efficiency
- growth response (in words) ([2]; 25 g/T): appeared to give a growth response
- growth rate / feed efficiency, production parameters (in words) [3]: essentially no effect on growth rate or feed efficiency
- Average 4 Week Performance: Feed Efficiency [4]: 1.675
- Average 4 Week Performance: Gain [4]: 736.9 g
- Improved Response Over Basal Ration: Feed Efficiency [4]: -2.5%
- Improved Response Over Basal Ration: Gain [4]: -1.0%
- growth rate / feed efficiency, production parameters (in words) [4]: essentially no effect on growth rate or feed efficiency

Compound: 2-[2-(5-nitro-2-furyl)vinyl]-4-(o-hydroxyanilino)quinazoline [Example III]
- % Inhibition (Streptococcus agalactiae; 0.125 ppm): 100%
- % Inhibition (Streptococcus agalactiae; 0.25 ppm): 100%
- % Inhibition (Streptococcus agalactiae; 0.5 ppm): 100%
- % Inhibition (Streptococcus agalactiae; 1 ppm): 100%
- % Inhibition (Streptococcus agalactiae; 2 ppm): 100%
- % Inhibition (Streptococcus agalactiae; 4 ppm): 100%
- % Inhibition (Streptococcus agalactiae; 8 ppm): 100%
- % Inhibition (Streptococcus agalactiae; 16 ppm): 100%
- % Inhibition (Streptococcus agalactiae; 32 ppm): 100%
- % Inhibition (Streptococcus agalactiae; 64 ppm): 100%
- effectiveness compared with chlortetracycline (in words) (Streptococcus agalactiae; [7]): considerably more effective
- % Inhibition (Streptococcus faecalis; 0.125 ppm): 0%
- % Inhibition (Streptococcus faecalis; 0.25 ppm): 0%
- effectiveness compared with chlortetracycline (in words) (Streptococcus faecalis; [7]): considerably more effective
- % Inhibition (Vibrio coli; 0.125 ppm): 100%
- % Inhibition (Vibrio coli; 0.25 ppm): 100%
- % Inhibition (Vibrio coli; 0.5 ppm): 100%
- % Inhibition (Vibrio coli; 1 ppm): 100%
- % Inhibition (Vibrio coli; 2 ppm): 100%
- % Inhibition (Vibrio coli; 4 ppm): 100%
- % Inhibition (Vibrio coli; 8 ppm): 100%
- % Inhibition (Vibrio coli; 16 ppm): 100%
- % Inhibition (Vibrio coli; 32 ppm): 100%
- % Inhibition (Vibrio coli; 64 ppm): 100%
- effectiveness compared with chlortetracycline (in words) (Vibrio coli; [7]): considerably more effective
- % Inhibition (Salmonella typhimurium; 0.125 ppm): 0%
- % Inhibition (Salmonella typhimurium; 0.25 ppm): 0%
- % Inhibition (Salmonella typhimurium; 0.5 ppm): 0%
- % Inhibition (Salmonella typhimurium; 1 ppm): 0%
- % Inhibition (Salmonella typhimurium; 2 ppm): 0%
- % Inhibition (Salmonella typhimurium; 4 ppm): 0%
- % Inhibition (Salmonella typhimurium; 8 ppm): 0%
- % Inhibition (Salmonella typhimurium; 16 ppm): 0%
- % Inhibition (Salmonella typhimurium; 32 ppm): 0%
- % Inhibition (Salmonella typhimurium; 64 ppm): 0%
- Average 4 Week Performance: Feed Efficiency [2, 8]: 1.503
- Average 4 Week Performance: Gain [2, 8]: 812.7 g
- Improved Response Over Basal Ration: Feed Efficiency [2, 8]: +3.2%
- Improved Response Over Basal Ration: Gain [2, 8]: +6.2%
- % Inhibition (Salmonella cholerasuis; 0.125 ppm): 0%
- % Inhibition (Salmonella cholerasuis; 0.25 ppm): 0%
- % Inhibition (Salmonella cholerasuis; 0.5 ppm): 0%
- % Inhibition (Salmonella cholerasuis; 1 ppm): 0%
- % Inhibition (Salmonella cholerasuis; 2 ppm): 0%
- % Inhibition (Salmonella cholerasuis; 16 ppm): 100%
- % Inhibition (Salmonella cholerasuis; 32 ppm): 100%
- % Inhibition (Salmonella cholerasuis; 64 ppm): 100%
- % Inhibition (Streptococcus group E; 0.125 ppm): 100%
- % Inhibition (Streptococcus group E; 0.25 ppm): 100%
- % Inhibition (Streptococcus group E; 0.5 ppm): 100%
- % Inhibition (Streptococcus group E; 1 ppm): 100%
- % Inhibition (Streptococcus group E; 2 ppm): 100%
- % Inhibition (Streptococcus group E; 4 ppm): 100%
- % Inhibition (Streptococcus group E; 8 ppm): 100%
- % Inhibition (Streptococcus group E; 16 ppm): 100%
- % Inhibition (Streptococcus group E; 32 ppm): 100%
- % Inhibition (Streptococcus group E; 64 ppm): 100%
- effectiveness compared with chlortetracycline (in words) (Streptococcus group E; [7]): considerably more effective
- % Inhibition (Staphylococcus aureus; 0.125 ppm): 0%
- % Inhibition (Staphylococcus aureus; 0.25 ppm): 0%
- % Inhibition (Staphylococcus aureus; 0.5 ppm): 0%
- % Inhibition (Staphylococcus aureus; 1 ppm): 0%
- % Inhibition (Staphylococcus aureus; 2 ppm): 0%
- % Inhibition (Staphylococcus aureus; 4 ppm): 0%
- % Inhibition (Staphylococcus aureus; 8 ppm): 0%
- % Inhibition (Staphylococcus aureus; 16 ppm): 0%
- % Inhibition (Staphylococcus aureus; 32 ppm): 0%
- % Inhibition (Staphylococcus aureus; 64 ppm): 0%
- Average 4 Week Performance: Feed Efficiency [3, 8]: 1.669
- Average 4 Week Performance: Gain [3, 8]: 723.7 g
- Improved Response Over Basal Ration: Feed Efficiency [3, 8]: +6.5%
- Improved Response Over Basal Ration: Gain [3, 8]: +6.0%
- growth rate / feed efficiency, production parameters (in words) [3]: more substantial response
- % Inhibition (Salmonella gallinarum; 0.125 ppm): 0%
- % Inhibition (Salmonella gallinarum; 0.25 ppm): 0%
- % Inhibition (Salmonella gallinarum; 0.5 ppm): 0%
- % Inhibition (Salmonella gallinarum; 1 ppm): 0%
- % Inhibition (Salmonella gallinarum; 2 ppm): 0%
- % Inhibition (Salmonella gallinarum; 4 ppm): 50%
- % Inhibition (Salmonella gallinarum; 8 ppm): 50%
- % Inhibition (Salmonella gallinarum; 16 ppm): 100%
- % Inhibition (Salmonella gallinarum; 32 ppm): 100%
- % Inhibition (Salmonella gallinarum; 64 ppm): 100%
- Average 4 Week Performance: Feed Efficiency [4]: 1.597
- Average 4 Week Performance: Gain [4]: 766.9 g
- Improved Response Over Basal Ration: Feed Efficiency [4]: +2.3%
- Improved Response Over Basal Ration: Gain [4]: +3.1%
- growth rate / feed efficiency, production parameters (in words) [4]: moderate improvements
- % Inhibition ([5]; 1 ppm): 100%
- % Inhibition ([5]; 2 ppm): 100%
- % Inhibition ([5]; 4 ppm): 100%
- % Inhibition ([5]; 8 ppm): 100%
- % Inhibition ([5]; 16 ppm): 100%
- % Inhibition ([5]; 32 ppm): 100%
- % Inhibition ([5]; 64 ppm): 100%
- effectiveness compared with chlortetracycline (in words) [5, 7]: considerably more effective
- % Inhibition ([6]; 0.125 ppm): 100%
- % Inhibition ([6]; 0.25 ppm): 100%
- % Inhibition ([6]; 0.5 ppm): 100%
- % Inhibition ([6]; 1 ppm): 100%
- % Inhibition ([6]; 2 ppm): 100%
- % Inhibition ([6]; 4 ppm): 100%
- % Inhibition ([6]; 8 ppm): 100%
- % Inhibition ([6]; 16 ppm): 100%
- % Inhibition ([6]; 32 ppm): 100%
- % Inhibition ([6]; 64 ppm): 100%
- effectiveness compared with chlortetracycline (in words) [6, 7]: considerably more effective
